Assay results reported in patent US9682995B2, “Amino-substituted isothiazoles” (BAYER PHARMA AKTIENGESELLSCHAFT, priority 2013, dated 2017).

How the values were obtained:
Assay type in all cases: cell-based
Caco2 = test: Proliferation assay (crystal violet), Caco2; conditions: Homo sapiens, Caco-2, 96 h; Caco2, 4 days; read-out: Inhibition of proliferation IC50 Caco2
Experimental: (§1) Cultivated tumor cells (cells were ordered from ATCC, except HeLa-MaTu and HeLa-MaTu-ADR, which were ordered from EPO-GmbH, Berlin) were plated at a density of 1000 to 5000 cells/well, depending on the growth rate of the respective cell line, in a 96-well multititer plate in 200 μL of their respective growth medium supplemented 10% fetal calf serum. After 24 hours, the cells of one plate (zero-point plate) were stained with crystal violet (see below), while the medium of the other plates was replaced by fresh culture medium (200 μl), to which the test substances were added in various concentrations (0 μM, as well as in the range of 0.001-10 μM; the final concentration of the solvent dimethyl sulfoxide was 0.5%). The cells were incubated for 4 days in the presence of test substances. Cell proliferation was determined by staining the cells with crystal violet: the cells were fixed by adding 20 μl/measuring point of an 11% glutaric aldehyde solution for 15 minutes at room temperature. After three washing cycles of the fixed cells with water, the plates were dried at room temperature. The cells were stained by adding 100 μl/measuring point of a 0.1% crystal violet solution (pH 3.0). After three washing cycles of the stained cells with water, the plates were dried at room temperature. The dye was dissolved by adding 100 μl/measuring point of a 10% acetic acid solution. Absorption was determined by photometry at a wavelength of 595 nm. The change of cell number, in percent, was calculated by normalization of the measured values to the absorption values of the zero-point plate (=0%) and the absorption of the untreated (0 μm) cells (=100%). The IC50 values were determined by means of a 4 parameter fit.

DU145 = test: Proliferation assay (crystal violet), DU145; conditions: Homo sapiens, DU-145, 96 h; DU145, 4 days; read-out: Inhibition of proliferation IC50 DU145
Experimental: as §1

B16F10 = test: Proliferation assay (crystal violet), B16F10; conditions: Mus musculus, B16-F10, 96 h; B16F10, 4 days; read-out: Inhibition of proliferation IC50 B16F10
Experimental: as §1

NCI-H460 = test: Proliferation assay (crystal violet), NCI-H460; conditions: Homo sapiens, 96 h; NCI-H460, 4 days; read-out: Inhibition of proliferation IC50 NCI-H460
Experimental: as §1

HeLa-MaTu-ADR = test: Proliferation assay (crystal violet), HeLa-MaTu-ADR; conditions: 96 h, 4 days, read-out: Inhibition of proliferation IC50 HeLa-MaTu-ADR
Experimental: as §1

Row | SMILES | IC50 (Caco2) [nM] | IC50 (DU145) [nM] | IC50 (B16F10) [nM] | IC50 (NCI-H460) [nM] | IC50 (HeLa-MaTu-ADR) [nM]
1 | COc1ccc(NC(=O)c2c(C)nsc2Nc2cnc3c(F)c(F)ccc3n2)cn1 [Example 43, 5-[(5,6-Difluoroquinoxalin-2-yl)amino]-N-(6-methoxypyridin-3-yl)-3-methyl-1,2-thiazole-4-carboxamide] | 380 | 420 | 230 | 130 | 260
2 | COc1ccc(NC(=O)c2c(C)nsc2Nc2cnc3cc(C(F)(F)F)ccc3n2)cn1 [Example 45, N-(6-Methoxypyridin-3-yl)-3-methyl-5-{[6-(trifluoromethyl)quinoxalin-2-yl]amino}-1,2-thiazole-4-carboxamide] | 380 | 460 | 190 | 100 | 300
3 | CCc1ccccc1NC(=O)c1c(C)nsc1Nc1nc(C)nc2ccccc12 [Example 35, N-(2-Ethylphenyl)-3-methyl-5-[(2-methylquinazolin-4-yl)amino]-1,2-thiazole-4-carboxamide] | 1600 | 2400 | 1700 | 1600 | 610
4 | COc1ccc(NC(=O)c2c(C)nsc2Nc2nc3c(C(F)(F)F)cccc3s2)cc1F [Example 47, N-(3-Fluoro-4-methoxyphenyl)-3-methyl-5-{[4-(trifluoromethyl)-1,3-benzothiazol-2-yl]amino}-1,2-thiazole-4-carboxamide] | 360 | 49 | 110 | 180 | 83
5 | Cc1nsc(Nc2cc(C#N)ccn2)c1C(=O)Nc1ccc(Cl)c(F)c1 [Example 54, N-(4-Chloro-3-fluorophenyl)-5-[(4-cyanopyridin-2-yl)amino]-3-methyl-1,2-thiazole-4-carboxamide] | 1300 | 1200 | 860 | 210 | 650
6 | CCOC(=O)c1cnn2ccc(Nc3snc(C)c3C(=O)Nc3ccc(F)c(F)c3)nc12 [Example 55, Ethyl 5-({4-[(3,4-difluorophenyl)carbamoyl]-3-methyl-1,2-thiazol-5-yl}amino)-pyrazolo[1,5-a]pyrimidine-3-carboxylate] | 150 | 390 | 380 | 300 | 140
7 | Cc1nsc(Nc2nc3c(C(F)(F)F)cccc3s2)c1C(=O)Nc1ccc(F)c(F)c1 [Example 51, N-(3,4-Difluorophenyl)-3-methyl-5-{[4-(trifluoromethyl)-1,3-benzothiazol-2-yl]-amino}-1,2-thiazole-4-carboxamide] | 69 | 160 | 470 | 280 | 370
8 | Cc1nsc(Nc2cc(C#N)ccn2)c1C(=O)Nc1ccc(Oc2ccc(F)cc2F)nc1 [Example 114, 5-[(4-Cyanopyridin-2-yl)amino]-N-[6-(2,4-difluorophenoxy)pyridin-3-yl]-3-methyl-1,2-thiazole-4-carboxamide] | 980 | 1300 | 1200 | 520 | 690
9 | COc1ccc(NC(=O)c2c(C)nsc2Nc2cnc3cccc(C)c3n2)cn1 [Example 22, N-(6-methoxypyridin-3-yl)-3-methyl-5-[(8-methylquinoxalin-2-yl)amino]-1,2-thiazole-4-carboxamide] | 1600 | 2200 | 950 | 790 | 760
10 | Cc1nsc(Nc2cc(C#N)ccn2)c1C(=O)Nc1ccc(F)c(F)c1 [Example 27, 5-[(4-Cyanopyridin-2-yl)amino]-N-(3,4-difluorophenyl)-3-methyl-1,2-thiazole-4-carboxamide] | 450 | 350 | 220 | 220 | 240
11 | COc1ccc(NC(=O)c2c(C)nsc2Nc2nc3c(C(F)(F)F)cccc3s2)cn1 [Example 48, N-(6-Methoxypyridin-3-yl)-3-methyl-5-{[4-(trifluoromethyl)-1,3-benzothiazol-2-yl]-amino}-1,2-thiazole-4-carboxamide] | 430 | 600 | 430 | 210 | 350
12 | Cc1nsc(Nc2ccc(C#N)cn2)c1C(=O)Nc1ccc(F)c(F)c1 [Example 28, 5-[(5-Cyanopyridin-2-yl)amino]-N-(3,4-difluorophenyl)-3-methyl-1,2-thiazole-4-carboxamide] | 210 | 320 | 130 | 99 | 120
13 | CCc1ccccc1NC(=O)c1c(C)nsc1Nc1cnc2cccc(C)c2n1 [Example 33, N-(2-Ethylphenyl)-3-methyl-5-[(8-methylquinoxalin-2-yl)amino]-1,2-thiazole-4-carboxamide] | 740 | 1300 | 1400 | 1200 | 850
14 | CCc1ccccc1NC(=O)c1c(C)nsc1Nc1ccnc(C#N)n1 [Example 6, 5-[(2-Cyanopyrimidin-4-yl)amino]-N-(2-ethylphenyl)-3-methyl-1,2-thiazole-4-carboxamide] | 2300 | 3000 | 2300 | 2100 | 1900
15 | Cc1nsc(Nc2nc3c(C(F)(F)F)cccc3s2)c1C(=O)Nc1ccc(Cl)c(F)c1 [Example 53, N-(4-Chloro-3-fluorophenyl)-3-methyl-5-{[4-(trifluoromethyl)-1,3-benzothiazol-2-yl]amino}-1,2-thiazole-4-carboxamide] | 200 | 980 | 220 | 520 | 310

Further lines, results first:

Row | IC50 (Caco2) [nM] | IC50 (DU145) [nM] | IC50 (B16F10) [nM] | IC50 (NCI-H460) [nM] | IC50 (HeLa-MaTu-ADR) [nM] | SMILES
16 | 470 | 590 | 440 | 290 | 330 | Cc1nsc(Nc2cnc3ccccc3n2)c1C(=O)Nc1ccc(Cl)c(F)c1 [Example 40, N-(4-Chloro-3-fluorophenyl)-3-methyl-5-(quinoxalin-2-ylamino)-1,2-thiazole-4-carboxamide]
17 | 170 | 750 | 680 | 350 | 640 | CCc1ccccc1NC(=O)c1c(C)nsc1Nc1cnc2ccc(Cl)cc2n1 [Example 41, 5-[(7-Chloroquinoxalin-2-yl)amino]-N-(2-ethylphenyl)-3-methyl-1,2-thiazole-4-carboxamide]
18 | 110 | 180 | 120 | 86 | 110 | Cc1nsc(Nc2cnc3cc(F)ccc3n2)c1C(=O)Nc1ccc(F)c(F)c1 [Example 46, N-(3,4-Difluorophenyl)-5-[(6-fluoroquinoxalin-2-yl)amino]-3-methyl-1,2-thiazole-4-carboxamide]
19 | 190 | 310 | 230 | 130 | 130 | Cc1nsc(Nc2ccc(C#N)cn2)c1C(=O)Nc1ccc(Cl)c(F)c1 [Example 52, N-(4-Chloro-3-fluorophenyl)-5-[(5-cyanopyridin-2-yl)amino]-3-methyl-1,2-thiazole-4-carboxamide]
20 | 270 | 410 | 300 | 520 | 210 | Cc1nsc(Nc2cnc3ccccc3n2)c1C(=O)Nc1ccc(F)c(F)c1 [Example 50, N-(3,4-Difluorophenyl)-3-methyl-5-(quinoxalin-2-ylamino)-1,2-thiazole-4-carboxamide]
21 | 2400 | 9400 | 8400 | 2200 | 2700 | COc1ccc(NC(=O)c2c(C)nsc2Nc2cnc3cc(Cl)ccc3n2)cn1 [Example 23, 5-[(6-Chloroquinoxalin-2-yl)amino]-N-(6-methoxypyridin-3-yl)-3-methyl-1,2-thiazole-4-carboxamide]
22 | 560 | 540 | 470 | 370 | 370 | Cc1nsc(Nc2cnccn2)c1C(=O)Nc1ccc(Cl)c(F)c1 [Example 56, N-(4-Chloro-3-fluorophenyl)-3-methyl-5-(pyrazin-2-ylamino)-1,2-thiazole-4-carboxamide]
23 | 970 | 2500 | 1800 | 1500 | 410 | CCc1ccccc1NC(=O)c1c(C)nsc1Nc1cnc2ccccc2n1 [Example 19, N-(2-Ethylphenyl)-3-methyl-5-(quinoxalin-2-ylamino)-1,2-thiazole-4-carboxamide]
